Assay results: paper PMC3814719, “Structure of a bacterial putative acetyltransferase defines the fold of the human O-GlcNAcase C-terminal domain” (Open Biology, 2013)
pKd: −log10 of the molar value.

Molecular target: T1, OgpAT (Oceanicola granulosus, UniProt Q2CEE2)
T1 construct: gene OG2516_04134; full-length OgpAT, expressed as GST fusion from pGEX-6P-1 in E. coli BL21(DE3) pLysS, GST cut off with PreScission protease; 206 residues in crystal; monomer; biotinylated for SPR; gene immediately downstream of OgOGA
T1 sequence (Q2CEE2 whole entry, the tested form may be a part): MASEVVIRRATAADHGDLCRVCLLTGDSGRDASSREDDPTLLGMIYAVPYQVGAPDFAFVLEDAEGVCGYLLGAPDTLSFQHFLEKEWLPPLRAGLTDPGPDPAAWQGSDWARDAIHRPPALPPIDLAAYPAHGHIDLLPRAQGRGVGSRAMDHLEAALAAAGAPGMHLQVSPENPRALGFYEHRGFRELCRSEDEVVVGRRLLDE
Experiment: surface plasmon resonance, biotinylated protein on streptavidin chip, […] equilibrium fit
Format: binding
Conditions: read-out: OgpAT, wt

pKd: 5.08
Structure (SMILES): CC(=O)SCCNC(=O)CCNC(=O)[C@H](O)C(C)(C)COP(=O)(O)OP(=O)(O)OC[C@H]1O[C@@H](n2cnc3c(N)ncnc32)[C@H](O)[C@@H]1OP(=O)(O)O [AcCoA]
